Results as given in patent US20260242352A1, “INHIBITION OF SHIP1 AS A THERAPEUTIC STRATEGY FOR THE TREATMENT OF ALZHEIMER'S DISEASE” (The Trustees of Indiana University, priority 2022, published 2026).

System: primary mouse microglia
Assay: Phagocytosis in primary mouse microglia
Type: cell-based
Details: pHrodo-myelin
Method: Activity of Compound 9 in primary mouse microglia. Cortical tissue from C57BL/6J neonatal mice (P0-P3) was homogenized in Dulbecco's Modified Eagle Medium (DMEM), filtered through 250 and 100 μm mesh, and cultured in Advanced DMEM/F12 supplemented with 10% fetal bovine serum, 1× GlutaMAX and 1× Penicillin/Streptomycin. At 21 days in vitro (DIV), the cultures were subjected to mild trypsinization using 0.083% Trypsin-EDTA in DMEM for 30 mins to detach an intact layer of astrocytes. The microglia attached to the bottom were used as described in pHrodo-myelin phagocytosis assay to measure phagocytosis and cell health. The activity of Compound 10 in primary mouse microglia was obtained in a similar manner to Compound 9. Cortical tissue from C57BL/6J neonatal mice (P0-P3) was homogenized in Dulbecco's Modified Eagle Medium (DMEM), filtered through 250 and 100 μm mesh, and cultured in Advanced DMEM/F12 supplemented with 10% fetal bovine serum, 1× GlutaMAX and 1× Penicillin/Streptomycin. At 21 days in vitro (DIV), the cultures were subjected to mild trypsinization using 0.083% Trypsin-EDTA in DMEM for 30 mins to detach an intact layer of astrocytes. The microglia attached to the bottom were used as described in Example 13 to measure myelin phagocytosis and cell health. The results are depicted in FIG. 3. Primary Mouse Microglia of compound 10 was obtained in a similar manner to compound 9. The results are depicted in FIG. 3.

| SMILES | EC50 [nM] | increased phagocytosis [fold] |
| --- | --- | --- |
| Cl.Clc1ccccc1COc1cncc(-c2cnn(C3CCNCC3)c2)c1 [Compound 9, 3-((2-chlorobenzyl)oxy)-5-(1-(piperidin-4-yl)-1H-pyrazol-4-yl)pyridine hydrochloride] | 1300 | 1.8 |
| Cl.Clc1ccc(COc2cncc(-c3cnn(C4CCNCC4)c3)c2)c(Cl)c1 [Compound 10, 3-((2,4-dichlorobenzyl)oxy)-5-(1-(piperidin-4-yl)-1H-pyrazol-4-yl)pyridine hydrochloride] | 540 | 1.5 |
